Results published in ChEMBL document CHEMBL3352653, “Synthesis of pyrazolo[4,3-a]phenanthridines, a new scaffold for Pim kinase inhibition” (Bioorg Med Chem, 2014).

Key:
[1] = molecular target: T1, Serine/threonine-protein kinase pim-3 (Homo sapiens, UniProt Q86V86); test: Inhibition of full-length human PIM3 using RSRHSSYPAGT as substrate assessed as residual kinase activity after 30 mins in presence of [gamma-33P]ATP
[2] = molecular target: T1, Serine/threonine-protein kinase pim-3; test: Inhibition of full-length human PIM3 using RSRHSSYPAGT as substrate assessed as residual kinase activity at 1 uM after 30 mins in presence of [gamma-33P]ATP
[3] = Antiproliferative activity against human PC3 cells at 10 uM after 72 hrs by MTS assay; assay type: functional; details: PC-3, 72 h
[4] = molecular target: Serine/threonine-protein kinase pim-2 (Homo sapiens) (UniProt Q9P1W9); test: Inhibition of full-length human PIM2 using RSRHSSYPAGT as substrate assessed as residual kinase activity at 10 uM after 30 mins in presence of [gamma-33P]ATP
Chain of Serine/threonine-protein kinase pim-2 (Homo sapiens) (Q9P1W9 whole entry, looked up): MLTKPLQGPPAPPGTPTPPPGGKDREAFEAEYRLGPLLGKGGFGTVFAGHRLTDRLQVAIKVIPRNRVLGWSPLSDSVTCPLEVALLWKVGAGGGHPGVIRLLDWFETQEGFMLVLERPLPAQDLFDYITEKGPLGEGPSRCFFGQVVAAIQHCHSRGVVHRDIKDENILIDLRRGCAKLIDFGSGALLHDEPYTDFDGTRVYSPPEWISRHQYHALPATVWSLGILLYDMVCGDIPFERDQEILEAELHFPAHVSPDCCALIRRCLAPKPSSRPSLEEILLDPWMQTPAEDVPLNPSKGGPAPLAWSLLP

[5] = molecular target: Serine/threonine-protein kinase pim-2 (Homo sapiens) (UniProt Q9P1W9); test: Inhibition of full-length human PIM2 using RSRHSSYPAGT as substrate assessed as residual kinase activity at 1 uM after 30 mins in presence of [gamma-33P]ATP
[6] = Antiproliferative activity against human PC3 cells after 72 hrs by MTS assay; assay type: functional, cell-based; details: PC-3, 72 h
[7] = test system: LNCaP; test: Antiproliferative activity against human LNCAP cells at 10 uM after 72 hrs by MTS assay; assay type: functional
[8] = molecular target: T2, Serine/threonine-protein kinase pim-1 (Homo sapiens, UniProt P11309); test: Inhibition of full-length human PIM1 using RSRHSSYPAGT as substrate assessed as residual kinase activity at 10 uM after 30 mins in presence of [gamma-33P]ATP
Target sequence in this assay (P11309 whole entry, looked up): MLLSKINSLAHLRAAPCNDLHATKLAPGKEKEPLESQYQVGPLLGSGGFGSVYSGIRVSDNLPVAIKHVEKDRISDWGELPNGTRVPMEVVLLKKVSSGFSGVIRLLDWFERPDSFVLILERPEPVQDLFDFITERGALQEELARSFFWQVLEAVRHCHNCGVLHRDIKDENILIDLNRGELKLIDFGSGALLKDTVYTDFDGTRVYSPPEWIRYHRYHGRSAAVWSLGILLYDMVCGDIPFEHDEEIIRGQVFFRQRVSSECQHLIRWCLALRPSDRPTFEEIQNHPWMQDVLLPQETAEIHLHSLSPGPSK

[9] = molecular target: T1, Serine/threonine-protein kinase pim-3; test: Inhibition of full-length human PIM3 using RSRHSSYPAGT as substrate assessed as residual kinase activity at 10 uM after 30 mins in presence of [gamma-33P]ATP
[10] = molecular target: T2, Serine/threonine-protein kinase pim-1; test: Inhibition of full-length human PIM1 using RSRHSSYPAGT as substrate assessed as residual kinase activity at 1 uM after 30 mins in presence of [gamma-33P]ATP
Target sequence in this assay (P11309 whole entry, looked up): as the sequence (P11309 whole entry, looked up) above

[11] = molecular target: T2, Serine/threonine-protein kinase pim-1; test: Inhibition of full-length human PIM1 using RSRHSSYPAGT as substrate assessed as residual kinase activity after 30 mins in presence of [gamma-33P]ATP
Target sequence in this assay (P11309 whole entry): as the sequence (P11309 whole entry, looked up) above

SMILES	IC50 [1]	Activity [2]	Activity [4]	Activity [5]	Activity [8]	Activity [9]	Activity [10]	IC50 [11]	inhibition at 10 µM [3]	IC50 [6]	inhibition at 10 µM [7]
O=[N+]([O-])c1cc2[nH]ncc2c2c1ncc1cc3c(cc12)OCO3	400 nM	18.9%	54%	92%	15.8%	7%	53%		60%	5000 nM	54%
Nc1cc2[nH]ncc2c2c1ncc1ccccc12		55%	43%	86%	17%	24%	55%				
COc1ccc2c(cnc3c([N+](=O)[O-])cc4[nH]ncc4c32)c1	140 nM	8%	55%	64%	15%	5.5%	20%	120 nM	73%	1100 nM	40%
COc1ccc2c(cnc3c(N)cc4[nH]ncc4c32)c1		60%	84%	100%	35%	16.5%	96%				
O=[N+]([O-])c1cc2[nH]ncc2c2c1ncc1ccccc12	20 nM	6%	8.1%	46%	2.2%	0.9%	16%	70 nM	68%	2460 nM	54%

Second part, led by results:

IC50 [1]	Activity [2]	Activity [4]	Activity [5]	Activity [8]	Activity [9]	Activity [10]	IC50 [11]	SMILES	inhibition at 10 µM [3]	IC50 [6]	inhibition at 10 µM [7]
	42%	76%	110%	16%	7.9%	90%		Nc1cc2[nH]ncc2c2c1ncc1c(F)cccc12			
169 nM	14%	66%	84%	19%	6.7%	46%		O=[N+]([O-])c1cc2[nH]ncc2c2c1ncc1c(F)cccc12	37%		46%
200 nM	8.9%	47%	83%	9%	4%	28%		O=[N+]([O-])c1cc2[nH]ncc2c2c1ncc1ccc(Cl)cc12	75%	3000 nM	31%
	50%	57%	96%	18%	10.5%	88%		Nc1cc2[nH]ncc2c2c1ncc1ccc(Cl)cc12			
	98%	38%	84.6%	11%	47%	44%		c1ccc2c(c1)cnc1ccc3[nH]ncc3c12			
